Assay results reported in PubChem BioAssay AID1963868 (Molecular Pharmacology Branch, DTP, NCI, 2024).

System: KRAS PDC tumor spheroids (HUVEC+MSC), viability
Experiment: Anticancer human tumor 254851-301-R-J1-PDC patient-derived colon carcinoma cell line growth inhibition [KRAS2]
Conditions: for viability, T/C: stronger effect = lower value
Summary of the method: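 Combination screen of spheroid viability in tumor-cell co-cultures with endothelial (HUVEC) and mesenchymal stem cell stroma. Each agent was tested in half-log dilutions, topping at clinical Cmax or at 10 microM without a known Cmax.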

[1] = curve of first compound, second compound 0.1 µM
[2] = curve of first compound, second compound 0.316 µM
[3] = curve of first compound, second compound 1 µM
[4] = curve of first compound, second compound 3.16 µM
[5] = curve of first compound, second compound 10 µM
[6] = second compound 0.1 µM, first compound 0.0316 µM
[7] = second compound 0.1 µM, first compound 0.1 µM
[8] = second compound 0.1 µM, first compound 0.316 µM
[9] = second compound 0.1 µM, first compound 1 µM
[10] = second compound 0.1 µM, first compound 3.16 µM
[11] = second compound 0.1 µM, first compound 10 µM
[12] = second compound 0.316 µM, first compound 0.0316 µM
[13] = second compound 0.316 µM, first compound 0.1 µM
[14] = second compound 0.316 µM, first compound 0.316 µM
[15] = second compound 0.316 µM, first compound 1 µM
[16] = second compound 0.316 µM, first compound 3.16 µM
[17] = second compound 0.316 µM, first compound 10 µM
[18] = second compound 1 µM, first compound 0.0316 µM
[19] = second compound 1 µM, first compound 0.1 µM
[20] = second compound 1 µM, first compound 0.316 µM
[21] = second compound 1 µM, first compound 1 µM
[22] = second compound 1 µM, first compound 3.16 µM
[23] = second compound 1 µM, first compound 10 µM
[24] = second compound 3.16 µM, first compound 0.0316 µM
[25] = second compound 3.16 µM, first compound 0.1 µM
[26] = second compound 3.16 µM, first compound 0.316 µM
[27] = second compound 3.16 µM, first compound 1 µM
[28] = second compound 3.16 µM, first compound 3.16 µM
[29] = second compound 3.16 µM, first compound 10 µM
[30] = second compound 10 µM, first compound 0.0316 µM
[31] = second compound 10 µM, first compound 0.1 µM
[32] = second compound 10 µM, first compound 0.316 µM
[33] = second compound 10 µM, first compound 1 µM
[34] = second compound 10 µM, first compound 3.16 µM
[35] = second compound 10 µM, first compound 10 µM
[36] = second compound 0.1 µM, first compound 0.01 µM
[37] = second compound 0.316 µM, first compound 0.01 µM
[38] = second compound 1 µM, first compound 0.01 µM
[39] = second compound 3.16 µM, first compound 0.01 µM
[40] = second compound 10 µM, first compound 0.01 µM
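Note: spheroids exposed to compounds for seven days before readout.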
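Throughout, for viability, T/C: 100% = DMSO vehicle control luminescence of the spheroids.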

Row | SMILES | IC50 [1] [µM] | IC50 [2] [µM] | IC50 [3] [µM] | IC50 [4] [µM] | IC50 [5] [µM] | viability, T/C [6] [%] | viability, T/C [7] [%] | viability, T/C [8] [%] | viability, T/C [9] [%] | viability, T/C [12] [%] | viability, T/C [13] [%] | viability, T/C [14] [%] | viability, T/C [15] [%] | viability, T/C [18] [%] | viability, T/C [19] [%] | viability, T/C [20] [%] | viability, T/C [21] [%] | viability, T/C [24] [%] | viability, T/C [25] [%] | viability, T/C [26] [%] | further results
1 | CC1(C)CCC(CN2CCN(c3ccc(C(=O)NS(=O)(=O)c4ccc(NCC5CCOCC5)c([N+](=O)[O-])c4)c(Oc4cnc5[nH]ccc5c4)c3)CC2)=C(c2ccc(Cl)cc2)C1 + CNCc1ccccc1-c1csc(C(C)Nc2nc(C)nc3cc(OC)c(OC)cc23)c1 | > 10 | > 10 | 3.12 | 1.11 | < 0.0316 | 100 | 104 | 100 | 94.8 | 91.9 | 102 | 99.7 | 100 | 93.3 | 102 | 92.9 | 83.2 | 80.4 | 75.1 | 71.6 | viability, T/C [10]: 94%; viability, T/C [11]: 86%; viability, T/C [16]: 87.7%; viability, T/C [17]: 81.2%; viability, T/C [22]: 49.6%; viability, T/C [23]: 16.4%; viability, T/C [27]: 55%; viability, T/C [28]: 1.17%; viability, T/C [29]: 0.61%; viability, T/C [30]: 0.17%; viability, T/C [31]: 0.2%; viability, T/C [32]: 0.17%; viability, T/C [33]: 0.15%; viability, T/C [34]: 0.12%; viability, T/C [35]: 0.17%
2 | CCNC(=O)CC1N=C(c2ccc(Cl)cc2)c2cc(OC)ccc2-n2c(C)nnc21 (configuration not stated) + C=CC(=O)N1CCN(c2nc(=O)n(-c3c(C)ccnc3C(C)C)c3nc(-c4c(O)cccc4F)c(F)cc23)C(C)C1 | > 10 | > 10 | > 10 | > 10 | > 10 | 107 | 99.6 | 96.8 | 91 | 95 | 86.4 | 95.2 | 76.2 | 80.3 | 94.8 | 86.3 | 80.7 | 72.3 | 76.1 | 97 | viability, T/C [10]: 81%; viability, T/C [11]: 77.3%; viability, T/C [16]: 82.2%; viability, T/C [17]: 65.1%; viability, T/C [22]: 89.3%; viability, T/C [23]: 74.2%; viability, T/C [27]: 84.5%; viability, T/C [28]: 79.9%; viability, T/C [29]: 59.4%; viability, T/C [30]: 105%; viability, T/C [31]: 96.2%; viability, T/C [32]: 95.6%; viability, T/C [33]: 91.2%; viability, T/C [34]: 86%; viability, T/C [35]: 67.8%
3 | CC1COCCN1c1cc(-c2ccnn2C)c2ccnc(-c3ccn[nH]3)c2n1 (configuration not stated) + CC1OCC2(CCN(c3cnc(Sc4ccnc(N)c4Cl)c(N)n3)CC2)C1N | 0.303 | 0.323 | 0.315 | 0.165 | 0.152 | 107 | 75.5 | 48.6 | 36.4 | 101 | 83.5 | 49.8 | 33 | 89.8 | 79 | 47.1 | 34.6 | 74.8 | 57 | 39.2 | viability, T/C [36]: 114%; viability, T/C [10]: 24.5%; viability, T/C [37]: 90.5%; viability, T/C [16]: 24.4%; viability, T/C [38]: 88.7%; viability, T/C [22]: 21.2%; viability, T/C [39]: 69.2%; viability, T/C [27]: 23.1%; viability, T/C [28]: 21.9%; viability, T/C [40]: 67.1%; viability, T/C [30]: 65.8%; viability, T/C [31]: 58.3%; viability, T/C [32]: 35.8%; viability, T/C [33]: 27.2%; viability, T/C [34]: 20%
4 | COc1cc(Nc2ncc3c(n2)-c2ccc(Cl)cc2C(c2c(F)cccc2OC)=NC3)ccc1C(=O)O |  |  |  |  |  |  |  |  |  |  |  |  |  |  |  |  |  |  |  |  | viability, T/C (compound 0.0316 µM): 80.7% [middle of 5 runs]; viability, T/C (compound 0.1 µM): 41.5% [middle of 5 runs]; viability, T/C (compound 0.316 µM): 32.4% [middle of 5 runs]; viability, T/C (compound 1 µM): 28.5% [middle of 5 runs]; viability, T/C (compound 3.16 µM): 18.7% [middle of 5 runs]; viability, T/C (compound 10 µM): 10.7% [middle of 5 runs]; IC50 (curve of compound): 89.4 nM [middle of 5 runs]
5 | CCNC(=O)CC1N=C(c2ccc(Cl)cc2)c2cc(OC)ccc2-n2c(C)nnc21 (configuration not stated) + CC1OCC2(CCN(c3cnc(Sc4ccnc(N)c4Cl)c(N)n3)CC2)C1N | > 10 | > 10 | > 10 | 5.86 | > 10 | 111 | 103 | 99.9 | 95.6 | 94.2 | 108 | 81.9 | 89.5 | 84.8 | 83.3 | 93.1 | 73.9 | 73 | 69.3 | 73 | viability, T/C [10]: 94.9%; viability, T/C [11]: 77.2%; viability, T/C [16]: 77.8%; viability, T/C [17]: 68.5%; viability, T/C [22]: 86.1%; viability, T/C [23]: 65.6%; viability, T/C [27]: 67%; viability, T/C [28]: 58.9%; viability, T/C [29]: 42%; viability, T/C [30]: 70.5%; viability, T/C [31]: 67.4%; viability, T/C [32]: 57.8%; viability, T/C [33]: 56.5%; viability, T/C [34]: 56.5%; viability, T/C [35]: 50.5%
6 | CCN1CCN(Cc2ccc(Nc3ncc(F)c(-c4cc(F)c5nc(C)n(C(C)C)c5c4)n3)nc2)CC1 + C=CC(=O)N1CCN(c2nc(=O)n(-c3c(C)ccnc3C(C)C)c3nc(-c4c(O)cccc4F)c(F)cc23)C(C)C1 | 0.96 | > 1 | > 1 | 0.707 | > 1 | 96.9 | 83.2 | 73.2 | 47.1 | 90.4 | 82.6 | 73.2 | 50.9 | 92.8 | 78.2 | 75.7 | 48.4 | 97.1 | 59.7 | 71.4 | viability, T/C (second compound 0.1 µM, first compound 0.00316 µM): 114%; viability, T/C [36]: 101%; viability, T/C (second compound 0.316 µM, first compound 0.00316 µM): 113%; viability, T/C [37]: 107%; viability, T/C (second compound 1 µM, first compound 0.00316 µM): 104%; viability, T/C [38]: 101%; viability, T/C (second compound 3.16 µM, first compound 0.00316 µM): 89.5%; viability, T/C [39]: 87.4%; viability, T/C [27]: 42.6%; viability, T/C (second compound 10 µM, first compound 0.00316 µM): 96.4%; viability, T/C [40]: 105%; viability, T/C [30]: 102%; viability, T/C [31]: 83.2%; viability, T/C [32]: 73.8%; viability, T/C [33]: 56%
7 | COC(=O)c1ccc2c(C(=Nc3ccc(N(C)C(=O)CN4CCN(C)CC4)cc3)c3ccccc3)c(O)[nH]c2c1 + CNCc1ccccc1-c1csc(C(C)Nc2nc(C)nc3cc(OC)c(OC)cc23)c1 | > 10 | > 10 | > 10 | 0.378 | < 0.0316 | 101 | 94.3 | 96.3 | 91 | 93.1 | 93.6 | 91.9 | 87 | 91.8 | 96.5 | 84.8 | 79.9 | 63.6 | 70.2 | 58.8 | viability, T/C [10]: 83.9%; viability, T/C [11]: 95.9%; viability, T/C [16]: 77.4%; viability, T/C [17]: 86.2%; viability, T/C [22]: 69.2%; viability, T/C [23]: 59%; viability, T/C [27]: 2.44%; viability, T/C [28]: 0.21%; viability, T/C [29]: 0.68%; viability, T/C [30]: 0.16%; viability, T/C [31]: 0.16%; viability, T/C [32]: 0.25%; viability, T/C [33]: 0.11%; viability, T/C [34]: 0.1%; viability, T/C [35]: 0.16%
